System: GFP-HttQ74-3 and GFP-HttQ28-2 HeLa cell lines
Test: Ubiquilin-1 transfection of stable GFP-HttPolyQ HeLa cell lines, serum withdrawal-induced cell death and aggregates
Format: cell-based
Excerpt: FIG. 11. […] The 28Q-2 and 74Q-3 were used in most of our studies. The asterisk corresponds to a non-specific band that is detected by the GFP antibody. • B. Representative fluorescent images of GFP-HttPolyQ(28)-2 and GFP-HttPolyQ(74)-3 stable cell lines. Note that GFP fluorescence is located in both the cytoplasm and the nucleus, but that compact foci are only seen in the GFP-HttPolyQ(74)-3 cells. • C. Cells expressing expanded polyglutamine proteins are more sensitive to H2O2. The GFP-HftPolyQ(28)-2 and GFP-HttPolyQ(74)-3 stable cell lines were exposed to 200 μM concentration of H2O2 and after 5 hr, the cells were stained with both Hoechest 33342 and PI. The cells stained by PI represent the dead cells whereas all the nuclei are identified by Hoechst 33342 staining. • D. Graph showing percentage of cell death after the cells were exposed to different concentrations of H2O2 for 5 hr. Percentages of cell death calculated by determining the ratio of PI-positively stained cells to that of Hoechst-stained cells. There was a significant difference in cell death upon exposure of GFP-HttPolyQ(28)-2 and GFP-HttPolyQ(74)-3 to 100 μM, 150 μM, or 200 μM of H2O2 (p<0.001). • E. Representative images showing that overexpression of ubiquilin-1 protects GFP-HttPolyQ(74)-3 expressing cells against serum withdrawal-induced cell death. Cells stably expressing GFP-HttPolyQ(28) or GFP-HttPolyQ(74) were transiently transfected with or without (mock transfection) plasmids encoding ubiquilin-1 by the calcium phosphate coprecipitation method. […] Cell death was quantified as described in D above. • H. Representative images showing that ubiquilin-1 overexpression protects GFP-HttPolyQ(74)-3 expressing cells against serum withdrawal-induced cell death, in a dose-dependent manner. […] After 5 hours of serum withdrawal and 30 hours following the transfection, the amount of cell death was analyzed by staining cells with both PI and Hoechst 33342. • I. Graph showing quantification of cell death in the experiments described in H. • J. Immunoblot showing overexpression of increasing amounts of ubiquilin-1 cDNA in the GFP-HttPolyQ(74)-3 cell line reduces GFP-aggregates trapped in the stacking gel after SDS-PAGE. […] Bottom panel: Quantification of the spot intensity determined in three independent experiments.
HeLa cells were grown in DME supplemented with 10% FBS. […] Stable cell lines were identified by GFP-fluorescence.
Cell death was monitored either through examination of the nuclear morphology observed after Hoechst 33342 (1 μg/ml) staining, or through detecting the membrane selective permeability following 3 μM of propidium iodide (PI) staining. […]

## UBQLN1: PS-interacting protein ubiquilin-1, overexpressed in cells from a cDNA expression plasmid
GFP-HttPolyQ(74)-3 cells, 2, 3 and 6 μg vs mock or 1 μg
  spot intensity of GFP-aggregates, filter retardation assay: significantly lower
GFP-HttQ28-2 cell line
  cell death, ubiquilin-1-transfected vs mock-transfected: no significant difference in cell death
GFP-HttQ74-3 cell line
  protection against cell death with increasing amounts of plasmid: dose-dependent protection against cell death
GFP-HttQ74-3 cell line, 24 hours after transfection and serum deprivation, vs untransfected
  reduction in cell death: approximately 50%

Source: US20110166206A1, “UBIQUILIN REGULATION OF PRESENILIN ENDOPROTEOLYSIS, AND SUPPRESSION OF POLYGLUTAMINE-INDUCED TOXICITY IN CELLS” (UNIVERSITY OF MARYLAND BIOTECHNOLOGY INSTITUTE, priority 2005, published 2011)
